From patent US20250368667A1, “USP1 INHIBITOR” (Shanghai Qilu Pharmaceutical Research and Development …, priority 2022, published 2025)

Biological target: recombinant human His6-USP1/His6-UAF1 composite protein (Homo sapiens (Human), UniProt O94782)
Assay: USP1 enzyme activity detection (Ub-Rho fluorescence)
Format: biochemical
Conditions: USP1/UAF1, Ub-Rho substrate 300 nM, 1 hour pre-incubation; read-out: IC50 (enzymatic inhibition of USP1)

Sequence of recombinant human His6-USP1/His6-UAF1 composite protein (O94782 whole entry): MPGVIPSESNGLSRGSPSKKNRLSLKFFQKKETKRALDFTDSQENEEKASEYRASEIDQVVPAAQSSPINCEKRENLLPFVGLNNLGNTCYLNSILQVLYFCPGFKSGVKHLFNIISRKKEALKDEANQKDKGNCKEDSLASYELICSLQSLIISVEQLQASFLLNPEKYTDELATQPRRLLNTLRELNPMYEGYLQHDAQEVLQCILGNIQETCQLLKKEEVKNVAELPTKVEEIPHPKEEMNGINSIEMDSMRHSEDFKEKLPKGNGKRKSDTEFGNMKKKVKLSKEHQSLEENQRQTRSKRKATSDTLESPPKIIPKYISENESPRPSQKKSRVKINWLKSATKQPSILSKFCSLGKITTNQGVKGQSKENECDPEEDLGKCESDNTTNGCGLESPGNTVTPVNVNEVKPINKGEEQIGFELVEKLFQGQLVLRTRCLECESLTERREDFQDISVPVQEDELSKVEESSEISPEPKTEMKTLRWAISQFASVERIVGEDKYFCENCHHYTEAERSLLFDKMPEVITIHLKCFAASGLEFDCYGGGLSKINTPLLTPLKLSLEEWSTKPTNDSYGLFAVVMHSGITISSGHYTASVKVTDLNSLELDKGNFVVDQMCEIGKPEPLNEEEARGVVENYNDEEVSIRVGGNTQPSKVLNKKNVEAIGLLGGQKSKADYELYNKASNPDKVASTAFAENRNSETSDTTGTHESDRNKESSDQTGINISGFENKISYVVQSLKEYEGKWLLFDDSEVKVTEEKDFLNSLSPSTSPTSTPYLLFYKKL
Sequence of recombinant human His6-USP1/His6-UAF1 composite protein (Q8TAF3 whole entry partner): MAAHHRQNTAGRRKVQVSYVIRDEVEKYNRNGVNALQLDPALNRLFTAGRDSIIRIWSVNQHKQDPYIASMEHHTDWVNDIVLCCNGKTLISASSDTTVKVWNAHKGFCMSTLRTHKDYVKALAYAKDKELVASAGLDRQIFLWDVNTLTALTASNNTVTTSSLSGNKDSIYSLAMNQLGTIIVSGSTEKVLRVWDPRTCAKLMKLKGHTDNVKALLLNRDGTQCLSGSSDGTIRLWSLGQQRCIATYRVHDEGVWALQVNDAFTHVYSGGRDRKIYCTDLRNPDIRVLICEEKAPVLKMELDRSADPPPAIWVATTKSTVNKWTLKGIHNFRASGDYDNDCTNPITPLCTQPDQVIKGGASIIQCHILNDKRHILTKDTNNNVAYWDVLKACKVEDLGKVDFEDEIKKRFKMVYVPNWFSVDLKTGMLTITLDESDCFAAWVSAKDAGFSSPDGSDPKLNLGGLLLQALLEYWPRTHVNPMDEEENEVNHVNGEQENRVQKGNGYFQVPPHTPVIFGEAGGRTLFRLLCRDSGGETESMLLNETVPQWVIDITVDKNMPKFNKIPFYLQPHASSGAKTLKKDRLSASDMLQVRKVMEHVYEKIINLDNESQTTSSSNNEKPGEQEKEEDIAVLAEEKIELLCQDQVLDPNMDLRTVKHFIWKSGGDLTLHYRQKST

SMILES	IC50
COc1ncnc(C2CC2)c1-c1ncc2c3ccccc3n(Cc3ccc(-c4nc(C(F)(F)F)cn4C)cc3)c2n1 [Compound 1, 2-(4-cyclopropyl-6-methoxypyrimidin-5-yl)-9-(4-(1-methyl-4-(trifluoromethyl)-1H-imidazol-2-yl)benzyl)-9H-pyrimido[4,5-b]indole]	4.04 nM
COc1ncnc(C2CC2)c1-c1ncc2c3ccccc3n(Cc3ccc(-c4nc(C(F)(F)F)cn4C(C)C)cc3)c2n1 [Compound 2, 2-(4-cyclopropyl-6-methoxypyrimidin-5-yl)-9-(4-(1-isopropyl-4-(trifluoromethyl)-1H-imidazo 1-2-yl)benzyl)-9H-pyrimido[4,5-b]indole]	7.55 nM
COc1ncnc(C2CC2)c1-c1ncc2c3c(F)cccc3n(Cc3ccc(-c4nc(C(F)(F)F)cn4C(C)C)cc3)c2n1 [Compound 4, 2-(4-cyclopropyl-6-methoxypyrimidin-5-yl)-5-fluoro-9-(4-(1-isopropyl-4-(trifluoromethyl)-1H-imidazol-2-yl)benzyl)-9H-pyrimido[4,5-b]indole]	6.85 nM
COc1ncnc(C2CC2)c1-c1ncc2c3cccc(F)c3n(Cc3ccc(-c4nc(C(F)(F)F)cn4C(C)C)cc3)c2n1 [Compound 6, 2-(4-cyclopropyl-6-methoxypyrimidin-5-yl)-8-fluoro-9-(4-(1-isopropyl-4-(trifluoromethyl)-1H-imidazol-2-yl)benzyl)-9H-pyrimido[4,5-b]indole]	6.07 nM
COc1ccc2c3cnc(-c4c(OC)ncnc4C4CC4)nc3n(Cc3ccc(-c4nc(C(F)(F)F)cn4C(C)C)cc3)c2c1 [Compound 7, 2-(4-cyclopropyl-6-methoxypyrimidin-5-yl)-9-(4-(1-isopropyl-4-(trifluoromethyl)-1H-imidazo 1-2-yl)benzyl)-7-methoxy-9H-pyrimido[4,5-b]indole]	5.81 nM
COc1ncnc(C2CC2)c1-c1ncc2c3ccc(C(F)(F)F)cc3n(Cc3ccc(-c4nc(C(F)(F)F)cn4C(C)C)cc3)c2n1 [Compound 8, 2-(4-cyclopropyl-6-methoxypyrimidin-5-yl)-9-(4-(1-isopropyl-4-(trifluoromethyl)-1H-imidazo 1-2-yl)benzyl)-7-(trifluoroethyl)-9H-pyrimido[4,5-b]indole]	21 nM
CCn1cc(C(F)(F)F)nc1-c1ccc(Cn2c3ccccc3c3cnc(-c4c(OC)ncnc4C4CC4)nc32)cc1 [Compound 9, 2-(4-cyclopropyl-6-methoxypyrimidin-5-yl)-9-(4-(1-ethyl-4-(trifluoromethyl)-1H-imidazol-2-yl)benzyl)-9H-pyrimido[4,5-b]indole]	4.07 nM
COc1ncnc(C2CC2)c1-c1ncc2c3ccc(S(C)(=O)=O)cc3n(Cc3ccc(-c4nc(C(F)(F)F)cn4C(C)C)cc3)c2n1 [Compound 14]	4.32 nM
COc1ncnc(C2CC2)c1-c1ncc2c3ccccc3n(Cc3ccc(-c4nc(C(F)(F)F)cn4C(C)C)nc3)c2n1 [Compound 16]	7.55 nM
COc1ncnc(C2CC2)c1-c1ncc2c3ccccc3n(Cc3ccc(-n4nc(C(F)(F)F)cc4C)cc3)c2n1 [Compound 17]	9.28 nM
COc1cc(Cn2c3ccccc3c3cnc(-c4c(OC)ncnc4C4CC4)nc32)ccc1-c1nc(C(F)(F)F)cn1C(C)C [Compound 18]	7.38 nM
COc1cc(Cn2c3ccccc3c3cnc(-c4c(OC)ncnc4C4CC4)nc32)cc(F)c1-c1nc(C(F)(F)F)cn1C(C)C [Compound 19]	8.25 nM
COc1ncnc(C2CC2)c1-c1ncc2c3ccc(C#N)cc3n(Cc3ccc(-c4nc(C(F)(F)F)cn4C)cc3)c2n1 [Compound 21]	4.39 nM
COc1ncnc(C2CC2)c1-c1ncc2c3cc(C(F)(F)F)ccc3n(Cc3ccc(-c4nc(C(F)(F)F)cn4C(C)C)cc3)c2n1 [Compound 22]	135 nM
COc1ncnc(C2CC2)c1-c1ncc2c3ccc(C(N)=O)cc3n(Cc3ccc(-c4nc(C(F)(F)F)cn4C)cc3)c2n1 [Compound 28]	5.95 nM
COc1ncnc(C2CC2)c1-c1ncc2c3ccc(S(N)(=O)=O)cc3n(Cc3ccc(-c4nc(C(F)(F)F)cn4C)cc3)c2n1 [Compound 30]	5.71 nM
COc1ncnc(C2CC2)c1-c1ncc2c3c(n(Cc4ccc(-c5nc(C(F)(F)F)cn5C)cc4)c2n1)CCC3 [Compound 31]	4.85 nM
COc1ncnc(C2CC2)c1-c1ncc2c(n1)n(Cc1ccc(-c3nc(C(F)(F)F)cn3C(C)C)cc1)c1nccn21 [Compound 32]	19.1 nM

SMILES	IC50
COc1ccc2c(c1)c1cnc(-c3c(OC)ncnc3C3CC3)nc1n2Cc1ccc(-c2nc(C(F)(F)F)cn2C(C)C)cc1 [Compound 33]	26.1 nM
CCn1cc(C(F)(F)F)nc1-c1ccc(Cn2c3nc(-c4c(OC)ncnc4C4CC4)ncc3c3cccc(F)c32)cc1 [Compound 35]	9.82 nM
COc1ncnc(C2CC2)c1-c1ncc2c3cccnc3n(Cc3ccc(-c4nc(C(F)(F)F)cn4C(C)C)cc3)c2n1 [Compound 36]	8.98 nM
COc1ncnc(C2CC2)c1-c1ncc2c3ccc(C(C)(C)O)cc3n(Cc3ccc(-c4nc(C(F)(F)F)cn4C)cc3)c2n1 [Compound 38]	12.1 nM
COc1ncnc(C2CC2)c1-c1ncc2c3ccc(C(F)F)cc3n(Cc3ccc(-c4nc(C(F)(F)F)cn4C)cc3)c2n1 [Compound 40]	15.1 nM
COC(=O)c1ccc2c3cnc(-c4c(OC)ncnc4C4CC4)nc3n(Cc3ccc(-c4nc(C(F)(F)F)cn4C)cc3)c2c1 [Compound 42]	30.4 nM
COc1ncnc(C2CC2)c1-c1ncc2c3cccc(Cl)c3n(Cc3ccc(-c4nc(C(F)(F)F)cn4C)cc3)c2n1 [Compound 44]	4.22 nM
CCn1cc(C(F)(F)F)nc1-c1ccc(Cn2c3cc(C(F)(F)F)ccc3c3cnc(-c4c(OC)ncnc4C4CC4)nc32)cc1 [Compound 45]	4.4 nM
COc1ncnc(C2CC2)c1-c1ncc2c3cccc(OC)c3n(Cc3ccc(-c4nc(C(F)(F)F)cn4C(C)C)cc3)c2n1 [Compound 46]	3.6 nM
COc1ncnc(C2CC2)c1-c1ncc2c3c(C(N)=O)cccc3n(Cc3ccc(-c4nc(C(F)(F)F)cn4C)cc3)c2n1 [Compound 47]	5.26 nM
COc1ncnc(C2CC2)c1-c1ncc2c3cccc(F)c3n(Cc3ccc(-n4nc(C(F)(F)F)cc4C)cc3)c2n1 [Compound 49]	21.2 nM
CCn1cc(C(F)(F)F)nc1-c1ccc(Cn2c3cc(C#N)ccc3c3cnc(-c4c(OC)ncnc4C4CC4)nc32)cc1 [Compound 50]	4.84 nM
COc1ncnc(C2CC2)c1-c1ncc2c3cccnc3n(Cc3ccc(-c4nc(C(F)(F)F)cn4C)cc3)c2n1 [Compound 53]	5.58 nM
COc1ncnc(C2CC2)c1-c1ncc2c3ccc(Cl)cc3n(Cc3ccc(-c4nc(C(F)(F)F)cn4C)cc3)c2n1 [Compound 54]	9.88 nM
COc1ncnc(C2CC2)c1-c1ncc2c3ccncc3n(Cc3ccc(-c4nc(C(F)(F)F)cn4C)cc3)c2n1 [Compound 55]	7.9 nM
COc1ncnc(C2CC2)c1-c1ncc2c3cnccc3n(Cc3ccc(-c4nc(C(F)(F)F)cn4C)cc3)c2n1 [Compound 57]	14.8 nM
COc1ncnc(C2CC2)c1-c1ncc2c3ccc(NS(C)(=O)=O)cc3n(Cc3ccc(-c4nc(C(F)(F)F)cn4C)cc3)c2n1 [Compound 59]	7.21 nM

The remaining lines, values ahead:

IC50	SMILES
5.55 nM	COc1ncnc(C2CC2)c1-c1ncc2c3ncccc3n(Cc3ccc(-c4nc(C(F)(F)F)cn4C(C)C)cc3)c2n1 [Compound 3, 2-(4-cyclopropyl-6-methoxypyrimidin-5-yl)-9-(4-(1-isopropyl-4-(trifluoromethyl)-1H-imidazo 1-2-yl)benzyl)-9H-pyridino[2′,3′: 4,5]pyrrolo[2,3-d]pyrimidine]
17.8 nM	CCOc1cc(C(F)(F)F)nn1-c1ccc(Cn2c3ccccc3c3cnc(-c4c(OC)ncnc4C4CC4)nc32)cc1 [Compound 10, 2-(4-cyclopropyl-6-methoxypyrimidin-5-yl)-9-(4-(5-ethoxy-3-(trifluoromethyl)-1H-pyrazol-1-yl)benzyl)-9H-pyrimido[4,5-b]indole]
58.3 nM	COc1ncnc(C2CC2)c1-c1ncc2c3cc(C#N)ccc3n(Cc3ccc(-c4nc(C(F)(F)F)cn4C(C)C)cc3)c2n1 [Compound 12]
6.01 nM	COc1ncnc(C2CC2)c1-c1ncc2c3ccccc3n([C@@H](C)c3ccc(-c4nc(C(F)(F)F)cn4C(C)C)cc3)c2n1 [Compound 13-P1]
5 nM	COc1ncnc(C2CC2)c1-c1ncc2c3ccccc3n([C@H](C)c3ccc(-c4nc(C(F)(F)F)cn4C(C)C)cc3)c2n1 [Compound 13-P2]
12.2 nM	COc1ncnc(C2CC2)c1-c1ncc2c3cc(F)ccc3n(Cc3ccc(-c4nc(C(F)(F)F)cn4C(C)C)cc3)c2n1 [Compound 15]
3.26 nM	CC(C)n1ncc(Cl)c1-c1ncc2c3ccccc3n(Cc3ccc(-c4nc(C(F)(F)F)cn4C)cc3)c2n1 [Compound 20]
11.7 nM	CCC(c1ccc(-c2nc(C(F)(F)F)cn2C(C)C)cc1)n1c2ccccc2c2cnc(-c3c(OC)ncnc3C3CC3)nc21 (stereo not shown) [Compound 23]
35.5 nM	COc1ncnc(C2CC2)c1-c1ncc2c3ccccc3n(Cc3ccc(-n4nc(C)cc4C(F)(F)F)cc3)c2n1 [Compound 24]
11.5 nM	COc1ncnc(C2CC2)c1-c1ncc2c3cccc(C#N)c3n(Cc3ccc(-c4nc(C(F)(F)F)cn4C)cc3)c2n1 [Compound 26]
9.95 nM	COc1ncnc(C2CC2)c1-c1ncc2c3cccc(F)c3n(Cc3ccc(-c4nc(C(F)(F)F)cn4C)cc3)c2n1 [Compound 27]
4.62 nM	COc1ncnc(C2CC2)c1-c1ncc2c3ccncc3n(Cc3ccc(-c4nc(C(F)(F)F)cn4C(C)C)cc3)c2n1 [Compound 29]
62 nM	COc1ncnc(C2CC2)c1-c1ncc2c3cc(C(C)(C)O)ccc3n(Cc3ccc(-c4nc(C(F)(F)F)cn4C)cc3)c2n1 [Compound 34]
58 nM	COc1ncnc(C2CC2)c1-c1ncc2c3cc(S(C)(=O)=O)ccc3n(Cc3ccc(-c4nc(C(F)(F)F)cn4C)cc3)c2n1 [Compound 37]
29.9 nM	COc1ncnc(C2CC2)c1-c1ncc2c3c(C#N)cccc3n(Cc3ccc(-c4nc(C(F)(F)F)cn4C)cc3)c2n1 [Compound 39]
35.2 nM	COc1ncnc(C2CC2)c1-c1ncc2c3ccc(C(F)(F)F)cc3n(Cc3ccc(-c4nc(C(F)(F)F)cn4C)cc3)c2n1 [Compound 41]
5.9 nM	COc1ncnc(C2CC2)c1-c1ncc2c3ccc(C#N)cc3n(Cc3ccc(-c4nc(C(F)(F)F)cn4C(C)C)cc3)c2n1 [Compound 51]
